Data published in patent US4803221A, “Anthracene derivatives” (priority 1987, dated 1989).
Where a name gives a salt, the structure may show the parent alone.

Columns and labels:
[1] = tested on: lymphocytic leukemia P388/0; experiment: Lymphocytic Leukemia P388/0 Test; format: in vivo, mouse (CD2-F1); design: LD20: unit: mg/kg; conditions: ip days 1, 5, 9; for LD20: doses on a mg/kg basis; for T/C × 100% (Excluding 30 Day Survivors): median survival time treated/control, at the optimal dose of the compound (Table I), active if ≥120%
From the text: (§1) Methods for evaluating the antitumor activity of these compounds are essentially those used in the Tumor Panel by the Developmental Therapeutics Program, Division of Cancer Treatment, National Cancer Institute, A. Goldin, et al., Methods in Cancer Research, Vol. XVI, p.165, Academic Press (1979). Some modifications, in dose level and schedule have been made to increase the testing efficiency.
(§2) CD2-F1 mice, of the same sex, weighing 20±3 g are used for this test. Control and test animals are injected intraperitoneally with a suspension of ~10^6 viable P388/0 tumor cells on day 0. In each test, several dose levels which bracket the LD20 of the compound are evaluated; each dose level group contains six animals. The test compounds are prepared either in physiologic saline containing 0.05% Tween 80 or distilled water containing 5% dextrose and are administered intraperitoneally on days 1, 5, and 9 relative to tumor implant. Doses are on a mg/kg basis according to individual animals' body weights. The day of death for each animal is recorded, the median identified for each group and the ratios of median survival time for treated (T)/control (C) Groups are calculated. The criterion for activity is T/C×100≥120%.

[2] = Lymphocytic Leukemia P388/0 Test; format: in vivo, mouse (CD2-F1); design: LD20: unit: mg/kg; conditions: mouse, in vivo; ip days 1, 5, 9; doses on a mg/kg basis; read-out: highest nontoxic dose where the LD20 was not determined (values in parentheses in LD20 column)
From the text: as §1, §2

[3] = tested on: Herpes simplex 1/vero; experiment: Herpes simplex 1/vero plaque inhibition screen; format: cell-based
From the text: The column headings labeled Score, Toxicity, and Zone of Inhibition refer to the plaque inhibition screen while the IC50 heading to the plaque reduction screen.

Row | Compound | LD20 [1] | T/C × 100% (Excluding 30 Day Survivors) [1] | MTD [2] [mg/kg] | Zone of Inhibition ([3]; plaque inhibition screen) | Toxicity [3]
1 | CCCCc1c2ccccc2c(CNC(C)(CO)CO)c2ccccc12.Cl [Example 45B, 2-(((10-Butyl-9-anthracenyl)methyl)amino)-2-methyl-1,3-propanediol hydrochloride] | 212 | +170% | – | – | –
2 | CC(CO)(CO)NCc1cccc2c(Br)c3ccccc3cc12.Cl [Example 16C, 2-(((10-Bromo-1-anthracenyl)methyl)amino)-2-methyl-1,3-propanediol hydrochloride] | – | +225% | 300 | – | –
3 | CC(CO)(CO)NCc1c2ccccc2c(CCCl)c2ccccc12.Cl [Example 4B, 2-(((10-(2-chloroethyl)-9-anthracenyl)methyl)amino)-2-methyl-1,3-propanediol hydrochloride] | – | +225% | 300 | – | –
4 | CC(CO)(CO)NCc1c2ccccc2c(S(C)(=O)=O)c2ccccc12.Cl [Example 26B, 2-Methyl-2-(((10-methylsulfonyl-9-anthracenyl)methyl)amino)-1,3-propanediol hydrochloride] | – | +228% | 300 | – | –
5 | Cl.OCC(CO)(CO)NCc1c2ccccc2c(Cl)c2ccccc12 [Example 21, 2-(((10-Chloro-9-anthracenyl)methyl)amino)-2-hydroxymethyl-1,3-propanediol hydrochloride] | 440 | +140% | – | – | –
6 | CC(CO)(CO)NCc1c2ccccc2c(SCCO)c2ccccc12.Cl [Example 20B, 2-(((10-(2-hydroxyethylthio)-9-anthracenyl)methyl)amino)-2-methyl-1,3-propanediol hydrochloride] | 440 | +145% | – | – | –
7 | CC(CO)(CO)NCc1c2ccccc2c(Cl)c2c(Cl)cccc12.Cl [Example 5C, 2-(((4,10-dichloro-9-anthracenyl)methyl)amino)-2-methyl-1,3-propanediol hydrochloride] | – | +204% | 300 | – | –
8 | CCCCOc1c2ccccc2c(CNC(C)(CO)CO)c2ccccc12.Cl [Example 44F, 2-(((10-Butoxy-9-anthracenyl)methyl)amino)-2-methyl-1,3-propanediol hydrochloride] | 120 | +120% | – | – | –
9 | CC(CO)(CO)NCc1cccc2c(Cl)c3ccccc3cc12 [Example 37E, 2-(((10-Chloro-1-anthracenyl)methyl)amino)-2-methyl-1,3-propanediol methanesulfonate.9/20 H2 O] | 140 | +145% | – | – | –
10 | C[C@H](O)[C@@](C)(CO)NCc1c2ccccc2cc2ccccc12 (relative stereo) [Example 30G, (+-)(2R*,3S*)-2-((9-Anthracenylmethyl)amino)-2-methyl-1,3-butanediol hydrochloride 1/4H2 O] | 180 | +136% | – | – | –
11 | COCCOc1c2ccccc2c(CNC(C)(CO)CO)c2ccccc12 [Example 27B, 2-(((10-(2-Methoxyethoxy)-9-anthracenyl)methyl)amino)-2-methyl-1,3-propanediol hydrochloride 1/4H2 O] | 180 | +260% | – | – | –
12 | CC(CO)(CCO)NCc1c2ccccc2cc2ccccc12.CS(=O)(=O)O (stereo not shown) [Example 36G, 2-((9-anthracenylmethyl)amino)-2-methyl-1,4-butanediol methanesulfonate] | 120 | +125% | – | – | –
13 | COCC(C)(CO)NCc1c2ccccc2cc2ccccc12.Cl (stereo not shown) [Example 33D, 2-((9-Anthracenylmethyl)amino)-3-methoxy-2-methyl-1-propanol hydrochloride] | – | – | – | 35 | –
14 | CCSc1c2ccccc2c(CNC(C)(CO)CO)c2ccccc12.Cl [Example 19B, 2-(((10-ethylthio-9-anthracenyl)methyl)amino)-2-methyl-1,3-propanediol hydrochloride] | 625 | +145% | – | – | –
15 | CCOc1c2ccccc2c(CNC(C)(CO)CO)c2ccccc12.Cl [Example 24B, 2-(((10-Ethoxy-9-anthracenyl)methyl)amino)-2-methyl-1,3-propanediol hydrochloride] | 96 | +218% | – | – | –
16 | CC(CO)(CO)NCc1c2ccccc2c(N2CCOCC2)c2ccccc12 [Example 28B, 2-Methyl-2-((((10-N-morpholino)-9-anthracenyl)methyl)amino)-1,3-propanediol methanesulfonate.3/4H2 O] | 225 | +235% | – | – | –
17 | CC(CO)(CO)NCc1c2ccccc2c(CO)c2ccccc12 [Example 6, 2-(((10-Hydroxymethyl-9-anthracenyl)methyl)amino)-2-methyl-1,3-propanediol hydrochloride 1/4H2 O] | 180 | +170% | – | – | –
18 | CC(CO)(CO)NCc1c2ccccc2cc2ccc(Cl)cc12.Cl [Example 17C, 2-(((2-Chloro-9-anthracenyl)methyl)amino)-2-methyl-1,3-propanediol hydrochloride] | 150 | +170% | – | – | –
19 | C[S+]([O-])c1c2ccccc2c(CNC(C)(CO)CO)c2ccccc12.Cl (stereo not shown) [Example 12B, 2-Methyl-2-(((10-methylsulfinyl-9-anthracenyl)methyl)amino)-1,3-propanediol hydrochloride] | 55 | +220% | – | – | –
20 | CC(CO)(CO)NCc1c2ccccc2cc2cc(Cl)ccc12 [Example 18, 2-(((3-Chloro-9-anthracenyl)methyl)amino-2-methyl-1,3-propanediol hydrochloride] | – | +181% | 675 | – | –
21 | CC(CO)(CO)NCc1cccc2cc3ccccc3cc12 [Example 15E, 2-((1-Anthracenylmethyl)amino)-2-methyl-1,3-propanediol hydrochloride] | 7 | +204% | – | – | –
22 | Cc1cc2c(Cl)c3ccccc3c(CNC(C)(CO)CO)c2cc1C.Cl [Example 40B, 2-(((10-Chloro-2,3-dimethyl-9-anthracenyl)methyl)amino)-2-methyl-1,3-propanediol hydrochloride] | – | +205% | 300 | – | –
23 | CC(CO)(CO)NCc1c2ccccc2c(Cl)c2ccc(Cl)cc12.Cl [Example 22C, 2-(((2,10-dichloro-9-anthracenyl)methyl)amino)-2-methyl-1,3-propanediol hydrochloride] | – | +200% | 400 | – | –
24 | CC(CO)(CO)NCc1c2ccccc2c(Cl)c2ccc(C(C)(C)C)cc12.Cl [Example 41C, 2-(((2-tert-butyl-10-chloro-9-anthracenyl)methyl)amino)-2-methyl-1,3-propanediol hydrochloride.1/4H2 O] | – | +125% | – | – | –
25 | CC(CO)(CO)NCc1c2ccccc2c(C#N)c2ccccc12.Cl [Example 14B, 10-((1,1-Bis(hydroxymethyl)ethylamino)methyl)-9-anthracenecarbonitrile hydrochloride] | 387 | +190% | – | – | –
26 | CC(C)C(CO)(CO)NCc1c2ccccc2cc2ccccc12 [Example 35C, 2-((9-Anthracenylmethyl)amino)-2-isopropyl-1,3-propanediol methanesulfonate] | 450 | +150% | – | – | –
27 | 2-(((2-Ethyl-9-anthracenyl)methyl)amino)-2-methyl-1,3-propanediol and 2-(((3-ethyl-9-anthracenyl)methyl)amino)-2-methyl-1,3-propanediol hydrochloride.1/4H2 O [Example 31C] | – | – | – | – | Y
28 | CC(CO)(CO)NCc1c2ccccc2c(Br)c2ccccc12.Cl [Example 8B, 2-(((10-Bromo-9-anthracenyl)methyl)amino)-2-methyl-1,3-propanediol hydrochloride] | – | +200% | 450 | – | –
29 | CC(CO)(CO)NCc1c2ccccc2c(Cl)c2cc(Cl)ccc12.Cl [Example 23, 2-(((3,10-dichloro-9-anthracenyl)methyl)amino)-2-methyl-1,3-propanediol hydrochloride] | – | +210% | 300 | – | –
